This is an account of results in PubChem BioAssay AID1053168 (Broad Institute, 2014).

Assay [1] can be described thus: Stage specific vaccinia inhibitors, dry powder dose response, infected cell reporter fluorescence (AID 1053168). The conditions noted are these: Vaccinia-infected cells, mCherry/Venus stage reporter fluorescence; at 21 µM (top of the series).
Assay [2] has as its system Vaccinia-infected cells, mCherry/Venus stage reporter fluorescence. The description is as above.
Setting [3] is: measured here: mCherry reporter AC50.
Setting [4] is: measured here: Venus reporter AC50.

Calls of active or inactive are those of the source. The rule behind the calls is not given here.

Take `CCCNC(=O)C[C@H]1CC[C@@H]2[C@@H](COc3ccc(NC(=O)CCC)cc3C(=O)N2C)O1`: in assay [1], the activity change, negative = inhibition is 2.55% (inactive). As for `CN1c2ccc(C#Cc3cccnc3)cc2[C@H]2[C@H](CCN2C(=O)C2CCC2)[C@@H]1CO`, the activity change, negative = inhibition in assay [1] is -15.9% (inactive).

By AC50 is commonly meant the concentration at which the activity in the assay is half-maximal. In assay [2] (setting [3]), `OC[C@H]1Nc2ccc(-c3cccc(F)c3)cc2[C@H]2[C@@H]1CCN2Cc1ccc(F)cc1` returned an AC50 greater than 42 µM. The activity change, negative = inhibition in assay [1] was -30.8% (inactive). For `COc1ccccc1CN1CC[C@@H]2[C@@H](CO)Nc3ccc(C#Cc4ccccc4)cc3[C@@H]21`, the AC50 in assay [2] and in assay [2] (setting [3]) was 20.9 µM in each case. Turning to `C[C@H]1CN([C@@H](C)CO)S(=O)(=O)c2ccc(C#CC(C)(C)O)cc2O[C@H]1CN(C)Cc1ccc(-c2ccccc2)cc1`, the AC50 was 14.9 µM in assay [2], 16.6 µM in assay [2] (setting [4]) and 14.9 µM in assay [2] (setting [3]). As for `C[C@H](O)C#Cc1ccc2c(c1)O[C@@H](CN(C)Cc1ccccc1)[C@H](C)CN([C@@H](C)CO)S2(=O)=O`, the AC50 in assay [2] (setting [4]) and in assay [2] (setting [3]) was greater than 42 µM each time. The activity change, negative = inhibition in assay [1] was -8.31% (inactive). In the case of `COc1ccccc1CN1CC[C@@H]2[C@@H](CO)Nc3ccc(-c4ccc(C(=O)N(C)C)cc4)cc3[C@@H]21`, the AC50 in assay [2] (setting [4]) and in assay [2] (setting [3]) was greater than 42 µM throughout. In assay [1], the activity change, negative = inhibition is -12.1% (inactive).

Take `C[C@@H]1CN([C@@H](C)CO)S(=O)(=O)c2ccc(C#C[C@@H](C)O)cc2O[C@@H]1CN(C)Cc1ccccc1`: the AC50 in assay [2] (setting [4]) is greater than 42 µM. The activity change, negative = inhibition in assay [1] is -27% (inactive). As to `C[C@@H](O)C#Cc1ccc2c(c1)O[C@@H](CN(C)Cc1ccccc1)[C@@H](C)CN([C@@H](C)CO)S2(=O)=O`, the activity change, negative = inhibition in assay [1] was -38% (inactive). For `C[C@H](CO)N1C[C@H](C)[C@H](CN(C)Cc2ccc(-c3ccccc3)cc2)Oc2cc(C#C[C@@H](C)O)ccc2S1(=O)=O`, the AC50 in assay [2] (setting [4]) and in assay [2] (setting [3]) was greater than 42 µM in each case. In addition, the activity change, negative = inhibition in assay [1] is -20% (inactive). Regarding `CCCNC(=O)N(C)C[C@@H]1Oc2ncc(C#CC3CCCCC3)cc2C(=O)N([C@H](C)CO)C[C@@H]1C`, the AC50 in assay [2] (setting [4]) was greater than 42 µM. For the same compound, the activity change, negative = inhibition in assay [1] is -19.2% (inactive). As to `C[C@H](O)C#Cc1ccc2c(c1)O[C@@H](CN(C)Cc1ccccc1)[C@@H](C)CN([C@@H](C)CO)S2(=O)=O`, in assay [1], the activity change, negative = inhibition was -2.82% (inactive). Same read-out and setting: as for `C[C@H](O)C#Cc1ccc2c(c1)O[C@@H](CN(C)Cc1ccccc1)[C@@H](C)CN([C@H](C)CO)S2(=O)=O`, the figure is 16.5% (inactive); as for `C[C@H](CO)N1C[C@H](C)[C@H](CN(C)Cc2ccccc2)Oc2cc(C#C[C@@H](C)O)ccc2S1(=O)=O`, 1.54% (inactive). Turning to `C[C@H](O)C#Cc1ccc2c(c1)O[C@H](CN(C)Cc1ccccc1)[C@@H](C)CN([C@@H](C)CO)S2(=O)=O`, the AC50 in assay [2] (setting [4]) and in assay [2] (setting [3]) was greater than 42 µM throughout. Besides, the activity change, negative = inhibition in assay [1] was -24.7% (inactive).

Regarding `C[C@@H]1CN([C@@H](C)CO)C(=O)Cc2cc(NC(=O)C3CCCCC3)ccc2O[C@H]1CN(C)C(=O)Nc1ccccc1`, the activity change, negative = inhibition in assay [1] is -0.285% (inactive). For the compound `CN1c2ccc(C#Cc3cccnc3)cc2[C@H]2[C@H](CCN2C(=O)C2CCCCC2)[C@H]1CO`, in assay [1], the activity change, negative = inhibition was 19.5% (inactive). Consider `C[C@H](O)C#Cc1ccc2c(c1)O[C@H](CN(C)Cc1ccccc1)[C@H](C)CN([C@@H](C)CO)S2(=O)=O`, for which, in assay [1], the activity change, negative = inhibition was -6.79% (inactive).

As to `C[C@@H]1CN([C@H](C)CO)S(=O)(=O)c2ccc(C#C[C@@H](C)O)cc2O[C@H]1CN(C)Cc1ccccc1`, in assay [1], the activity change, negative = inhibition was -15.2% (inactive). With `C[C@H](O)C#Cc1ccc2c(c1)O[C@@H](CN(C)Cc1ccccc1)[C@H](C)CN([C@H](C)CO)S2(=O)=O`, the AC50 in assay [2] (setting [4]) and in assay [2] (setting [3]) was greater than 42 µM throughout. For the same compound, the activity change, negative = inhibition in assay [1] was -12.7% (inactive). For the compound `C[C@@H](O)C#Cc1ccc2c(c1)O[C@@H](CN(C)Cc1ccncc1)[C@@H](C)CN([C@@H](C)CO)S2(=O)=O`, in assay [1], the activity change, negative = inhibition is 1.8% (inactive). Compound `COc1ccccc1CN1CC[C@@H]2[C@H]1c1cc(-c3ccc(C(=O)N(C)C)cc3)ccc1N[C@@H]2CO` came in with an AC50 in assay [2] (setting [3]) greater than 42 µM. Besides, the activity change, negative = inhibition in assay [1] is -27.4% (inactive). `C[C@H](O)C#Cc1ccc2c(c1)O[C@H](CN(C)Cc1ccccc1)[C@@H](C)CN([C@H](C)CO)S2(=O)=O` registered an AC50 in assay [2] (setting [3]) greater than 42 µM. Also, the activity change, negative = inhibition in assay [1] is -3.87% (inactive). As to `N#Cc1ccc(-c2ccc3c(c2)[C@@H]2[C@@H](CCN2C(=O)C2CCCCC2)[C@@H](CO)N3)cc1`, in assay [2] (setting [4]), the AC50 is greater than 42 µM. Besides, the activity change, negative = inhibition in assay [1] was -10.8% (inactive).
